Assays:
Prothrombin = Prothrombin (Homo sapiens, UniProt P00734); experiment: Inhibitory constant evaluated against thrombin (Factor IIa)
Homo sapiens = organism: Homo sapiens; experiment: Concentration needed to double the activated partial thromboplastin time in human plasma; assay type: functional
Serine protease 1 [1] = biological target: T1, Serine protease 1 (Homo sapiens, UniProt P07477); experiment: Inhibitory constant evaluated against trypsin
Serine protease 1 [2] = biological target: T1, Serine protease 1; experiment: Ratio of inhibitory constant evaluated against trypsin to that of thrombin (Factor IIa)

T1 sequence (P07477 whole entry): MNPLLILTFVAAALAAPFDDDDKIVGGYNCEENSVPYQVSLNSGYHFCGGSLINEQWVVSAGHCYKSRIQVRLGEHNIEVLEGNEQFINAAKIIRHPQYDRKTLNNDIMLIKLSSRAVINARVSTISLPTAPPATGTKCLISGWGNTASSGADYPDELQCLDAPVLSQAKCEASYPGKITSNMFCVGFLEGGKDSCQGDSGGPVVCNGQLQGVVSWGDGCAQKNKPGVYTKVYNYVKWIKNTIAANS

## Cc1ccc(NS(=O)(=O)Cc2ccccc2)c(=O)n1CC(=O)NCc1ccccc1CN
Prothrombin
  Ki: 5.2 nM
Homo sapiens
  2x APTT: 0.44 µM
Serine protease 1 [1]
  Ki: 67 µM
Serine protease 1 [2]
  Selectivity ratio: 12900

## Cc1ccc(NS(=O)(=O)Cc2ccccc2)c(=O)n1CC(=O)NCc1ccccc1
Serine protease 1 [1]
  Ki: 466 µM
Serine protease 1 [2]
  Selectivity ratio: 3580

## Cc1ccc(NS(=O)(=O)Cc2ccccc2)c(=O)n1CC(=O)NCc1cccc(CN)c1
Prothrombin
  Ki: 490 nM
Serine protease 1 [1]
  Ki: 23 µM
Serine protease 1 [2]
  Selectivity ratio: 46.9

## Cc1cc(CNC(=O)[C@@H]2CCCN2C(=O)[C@H](N)C(c2ccccc2)c2ccccc2)c(C)cc1CN
Prothrombin
  Ki: 39 nM

## Cc1nc(N)ccc1CNC(=O)Cn1c(C)ccc(NS(=O)(=O)Cc2ccccc2)c1=O [L-374087]
Homo sapiens
  2x APTT: 0.22 µM
Serine protease 1 [2]
  Selectivity ratio: 6400

## NCc1ccccc1CNC(=O)[C@@H]1CCCN1C(=O)[C@H](N)Cc1ccccc1
Prothrombin
  Ki: 313 nM
Serine protease 1 [1]
  Ki: 106 µM
Serine protease 1 [2]
  Selectivity ratio: 339

## Cc1ccc(NS(=O)(=O)Cc2ccccc2)c(=O)n1CC(=O)NCc1cc(Cl)ccc1CCN
Prothrombin
  Ki: 0.05 nM
Homo sapiens
  2x APTT: 0.18 µM
Serine protease 1 [1]
  Ki: 37 µM
Serine protease 1 [2]
  Selectivity ratio: 740000

## N[C@H](Cc1ccccc1)C(=O)N1CCC[C@H]1C(=O)NCc1ccccc1
Serine protease 1 [1]
  Ki: > 1000 µM
Serine protease 1 [2]
  Selectivity ratio: > 217

## Cc1ccc(NS(=O)(=O)Cc2ccccc2)c(=O)n1CC(=O)NCc1cccc(Cl)c1
Prothrombin
  Ki: 7.1 nM
Homo sapiens
  2x APTT: 2.8 µM
Serine protease 1 [1]
  Ki: 20 µM
Serine protease 1 [2]
  Selectivity ratio: 2790

## Cc1ccc(NS(=O)(=O)Cc2ccccc2)c(=O)n1CC(=O)NCc1ccccc1CCN
Prothrombin
  Ki: 4.1 nM
Homo sapiens
  2x APTT: 0.53 µM
Serine protease 1 [1]
  Ki: 437 µM
Serine protease 1 [2]
  Selectivity ratio: 107000

## Cc1ccc(NS(=O)(=O)Cc2ccccc2)c(=O)n1CC(=O)NCc1ccccc1N
Prothrombin
  Ki: 470 nM
Serine protease 1 [1]
  Ki: > 1000 µM
Serine protease 1 [2]
  Selectivity ratio: > 2130

## CN(C(=O)C(Cc1ccc(CN)cc1)NS(=O)(=O)c1ccc2c(c1)CCCCC2)C1CCCC1 (configuration not stated)
Prothrombin
  Ki: 3.3 nM
Serine protease 1 [1]
  Ki: 6.3 µM

## NCc1ccc(Cl)cc1CNC(=O)Cn1c(Cl)cnc(NCC(F)(F)c2cccc[n+]2[O-])c1=O
Prothrombin
  Ki: 0.0034 nM
Homo sapiens
  2x APTT: 0.13 µM
Serine protease 1 [1]
  Ki: 0.415 µM

## NCCc1ccc(Cl)cc1CNC(=O)[C@@H]1CCCN1C(=O)[C@H](N)Cc1ccccc1
Prothrombin
  Ki: 62 nM
Serine protease 1 [1]
  Ki: 252 µM
Serine protease 1 [2]
  Selectivity ratio: 4060

## Cc1ccc(NS(=O)(=O)Cc2ccccc2)c(=O)n1CC(=O)NCc1cc(Cl)ccc1CN
Prothrombin
  Ki: 0.046 nM
Homo sapiens
  2x APTT: 0.16 µM
Serine protease 1 [1]
  Ki: 1.85 µM
Serine protease 1 [2]
  Selectivity ratio: 40200

## COc1ccc2cc(S(=O)(=O)NC(Cc3ccc(CN)cc3)C(=O)N(C)C3CCCC3)ccc2c1 (configuration not stated)
Prothrombin
  Ki: 6.6 nM
Serine protease 1 [1]
  Ki: 14.2 µM

## NCc1ccc(Cl)cc1CNC(=O)[C@@H]1CCCN1C(=O)[C@H](N)Cc1ccccc1
Prothrombin
  Ki: 3.3 nM
Homo sapiens
  2x APTT: 0.34 µM
Serine protease 1 [1]
  Ki: 6.2 µM
Serine protease 1 [2]
  Selectivity ratio: 1910

## Cc1cnc(NCCc2ccccc2)c(=O)n1CC(=O)NCc1cc(Cl)ccc1CN
Prothrombin
  Ki: 0.13 nM
Homo sapiens
  2x APTT: 0.41 µM
Serine protease 1 [1]
  Ki: 1.6 µM
Serine protease 1 [2]
  Selectivity ratio: 12300

## Cc1nc(N)ccc1CNC(=O)Cn1c(C)cnc(NCCc2ccccc2)c1=O [L-375378]
Homo sapiens
  2x APTT: 0.41 µM
Serine protease 1 [2]
  Selectivity ratio: 1910

## Cc1ccc(NS(=O)(=O)Cc2ccccc2)c(=O)n1CC(=O)NCc1ccc(CN)cc1
Prothrombin
  Ki: 49 nM
Serine protease 1 [1]
  Ki: 1.3 µM
Serine protease 1 [2]
  Selectivity ratio: 26.5

## N[C@H](Cc1ccccc1)C(=O)N1CCC[C@H]1C(=O)NCc1cccc(Cl)c1
Prothrombin
  Ki: 250 nM
Serine protease 1 [1]
  Ki: 89 µM
Serine protease 1 [2]
  Selectivity ratio: 356
